Data set [1] in a line: Fluorescence emission spectra of probes in glycerol and methanol (viscosity response). The conditions noted are these: maximum excitation wavelength of each probe. Type of data set: physicochemical. An excerpt: Respectively dissolve Probe 1-32 and Reference Probes BG-CCVJ and BG-Gly-CCVJ in dimethyl sulfoxide so as to prepare a mother liquid with a concentration of 1×10^−2M; add the mother liquid to glycerol and methanol respectively and mix them well to prepare a solution with a concentration of 1×10^−5 M. Based on different probes, the fluorescence emission spectrum of each probe are detected under the same conditions with maximum excitation wavelength of each probe.
The probes are sensitive to the change of viscosity and have viscosity response.

Data set [2] can be described thus: Fluorescence of free probe before reaction with the protein tag. Type of data set: physicochemical. The procedure: (§1) Mix the probe with corresponding protein tag to obtain the mixed sample, wherein the final concentration of probe in the mixed sample is 5 μM, and the final concentration of protein tags is 10 μM; hatch the mixed sample at 37° C. for 1 h, and detect its fluorescence intensity change by using the fluorescence spectrophotometer.
(§2) According to the free probe quantum yield shown in Table 1, the fluorescence of the probes of and reference probes are extremely low before the reaction with the protein tag, and is close to the background fluorescence level of PBS buffer solution. […] However, according to the quantum yield of the binding protein tag, the fluorescence signal enhancement can be detected in the corresponding excitation emission channel after the probe reacts with the protein tag with hundreds to one thousand fold fluorescence activation times and very high brightness; the reference probes also can activate fluorescence, but the fluorescence quantum yield and brightness after activation are quite low.

In data set [3] the test system is SNAP protein tag. Briefly: Fluorescence activation after mixing probe with corresponding protein tag (SNAP). Type of data set: biochemical. The conditions noted are these: probe 5 μM, protein tag 10 μM, 37° C., 1 h. The procedure:
as §1, §2

Data set [4] deals with Hela cells. Briefly: Labeling of Hela cells expressing protein tags versus Hela-WT cells, confocal microscopy. Type of data set: cell-based. The conditions noted are these: probe 5 μM, 37° C., 2 h. The procedure: Take Hela cells as an example to detect the labeling effect of the compounds in mammalian cells. Hela cells and Hela-WT cells (Hela primitive cells without expressing protein tags), which can express protein tags stably, are planted in a glass bottom 96-well plate of 14 mm for 10 h. Add Probe 16, Probe 17 and Probe 18 into a culture medium respectively and dilute them to 5 μM. Hatch the cells in a carbon dioxide incubator at 37° C. for 2 h. Detect the fluorescence changes of labeled cells by using Leica TPS-8 confocal microscopy.

The subject of data set [5] is Hela cells. Kind of data set: Labeling of protein tags located in different organelles of Hela cells without washing. Type of data set: cell-based. The following applies: probe 0.2 μM, 2 h. The procedure:
Plant Hela cells (5000 cells/well) in a glass bottom plate of 96-well for 14 h, and then use Lipo2000 kit to transfect protein tags to locate plasmids in different organelles. After 24 h of transfection, remove the original culture medium, wash the culture medium twice with phenol free red DMEM culture medium, and hatch the cells with phenol free red medium containing probe (0.2 μM) for 2 h, and detect the effect of cell labeling by using Leica TCS-8 confocal microscopy imaging.

In data set [6] the test system is Hela cells. Kind of data set: Two-colour orthogonal labeling of CLIP-histone and mito-SNAP in the same Hela cell. Type of data set: cell-based. The conditions noted are these: Probe 16 and Probe 9, 0.2 μM, 2 h, without washing. The protocol: Plant Hela cells (5000 cells/well) in a glass bottom plate of 96-well for 14 h; transfect pcdna3.1-CLIP-histone (CLIP protein labeled chromosome localization plasmid) and pcdna3.1-mito-SNAP (SNAP protein labeled […] localization plasmid) by using Lipo2000 kit (0.1 μg/well). After 24 h of transfection, remove the original culture medium, and wash the culture medium twice with phenol free red DMEM culture medium, and hatch the cells respectively with phenol free red medium containing Probe 16 and Probe 9 (0.2 μM) for 2 h, and detect the effect of cell labeling by using Leica TCS-8 confocal microscopy imaging.

Data set [7] has as its system SNAP protein tag. Kind of data set: Labeling of SNAP protein tag expressed in the liver of living mice. Type of data set: in vivo. The following applies: 0.4 μM in 200 μL PBS intravenously, 6 h. The procedure: Firstly, introduce the plasmid pcdna3.1-SNAP (sample group) with SNAP protein expressing and the contrastive plasmid pcdna3.1-CAT (contrastive group) without SNAP protein expressing into mice. In this method, the plasmid is dissolved in a large volume of solution and rapidly injected into mice intravenously. The plasmid is absorbed by mouse liver, and then express the target protein. After 24 h of plasmid injection, inject the Probe 16 (0.4 μM) dissolved in 200 μL of PBS into mice intravenously to label SNAP protein tag. After 6 h, dissect the mice, and detect liver fluorescence differences by using Kodak multispectral vivo imaging system.

A further data set has as its system SNAP-IAA17-H2B. Briefly: Probe fluorescence during IAA-induced protein degradation (AID system) in Hela cells. Type of data set: cell-based. The conditions noted are these: probe 1 μM; 140 min after IAA added. The procedure:
In order to verify that the fluorescence activation of the probe is related to the existence of protein, SNAP protein of mammalian cells is taken as an example, and AID degradation system is an example of detecting the fluorescence changes of probes combined with SNAP after protein degradation in Hela cells. Firstly, plant Hela cells (20000/cm^2) in a glass bottom cell culture medium of 20 mm for 14 h, and then transect the plasmids pcdna3.1-TIR1 and pcdna3.1-SNAP-IAA17-H2B by means of Lipofectmain2000 transfection reagent (Invertogen Co.). After the cells are transfected for 24 h, replace the cells labeled by the original cell culture medium with phenol red DMEM culture medium containing Probe 16 (1 μM), and hatch the cee sample in a carbon dioxide incubator at 37° C. for 1 h. After labeling, detect the fluorescence signal of the labeled cells by using Leica SP8 laser confocal microscopy imaging, and add indoleacetic acid (IAA) to induce the protein degradation of SNAP-IAA17-H2B, and detect the changes of cell fluorescence during protein degradation.

SMILES strings stand for the structures. Where only a bound is given, the exact number is not on record here.

On to `CN(CCOC(=O)NCc1ccc(COc2nc(N)nc3[nH]cnc23)cc1)c1ccc2c(c1)C(C)(C)c1cc(/C=C(\C#N)C(=O)OC(C)(C)C)sc1-2` [Probe 16], for which, in data set [1] (1×10^−5 M), the “Fluorescence ratio in glycerol methanol” value was 1421. The same compound had an Emission wavelength in data set [1] (medium not given) of 645 nm. Moreover, in data set [2], the “Quantum yield of free probe” value is given as less than 0.001. In the data set on SNAP protein tag [3], the Fluorescence activation multiple was determined as 842 and the “Quantum yield of binding protein tags” value turned out to be 0.71. For the same compound, in the data set with Hela cells [4], the “Fluorescence signal in Hela-WT cells (without protein tags)” value was “no corresponding fluorescence signal is detected” and the “Increase of fluorescence signal in cells expressing protein tags” value is listed as roughly 700 times. Besides, the “Display of subcellular organelle structures” value in the data set with Hela cells [5] is listed as “can clearly display a variety of subcellular organelle structures without washing”. Besides, in the data set on Hela cells [6], the “Display of mitochondria and chromosomes in the same cell” value was “clearly and simultaneously display the structure of mitochondria and chromosomes without washing”. Further, in the data set on SNAP protein tag [7], the “Liver fluorescence intensity of pcdna3.1-SNAP mice relative to the contrastive group” value is “more than 20 fold” and the “Liver fluorescence of mice injected with contrastive plasmid pcdna3.1-CAT” value is on record as “very low”. In addition, the “Fluorescence signal of SNAP-IAA17-H2B protein after IAA addition” value with SNAP-IAA17-H2B is on record as “almost negligible”.

For the origin of these results see patent publication US12613246B2, “Fluorescent probe and protein labeling method” (SHANGHAI GLORY CAPITAL MANAGEMENT LTD., priority 2018, dated 2026).
